Values of other authors, collected in patent US20260232611A1, “USE OF (S)-3-AMINO-4-(DIFLUOROMETHYLENYL) CYCLOPENT-1-ENE-1-CARBOXYLIC ACID IN THE TREATMENT OF RHEUMATOID ARTHRITIS” (Ovid Therapeutics Inc., priority 2023, published 2026).

How the values were obtained:
[1] = test system: aspartate aminotransferase (Asp-AT); details: unlike vigabatrin
[2] = test system: alanine aminotransferase (Ala-AT); details: unlike vigabatrin

In the case of `N[C@H]1C[C@@H](C(=O)O)CC1=C(F)F` [CPP-115, (1S,3S)-3-amino+difluoromethylenyl-1-cyclopentanoic acid], the “inactivation or inhibition of off-target enzyme” value [1] is given as “not to inactivate or inhibit” and the “inactivation or inhibition of off-target enzyme” value [2] is given as “not to inactivate or inhibit”.
